Like-named read-outs stand apart in the source and are kept apart here.
Columns and labels:
[1] = test system: Colon Cancer cell line panel; assay: NCI antiproliferative assay, panel summary; format: cell-based, Human
[2] = test system: MCF7; assay: NCI antiproliferative SRB assay, Breast Cancer panel; format: cell-based, Human
[3] = test system: SK-MEL-28; assay: NCI antiproliferative SRB assay, Melanoma panel; format: cell-based, Human
[4] = test system: MALME-3M; assay: NCI antiproliferative SRB assay, Melanoma panel; format: cell-based, Human
[5] = test system: MOLT-4; assay: NCI antiproliferative SRB assay, Leukemia panel; format: cell-based, Human
[6] = test system: SW-620; assay: NCI antiproliferative SRB assay, Colon Cancer panel; format: cell-based, Human
[7] = test system: MDA-MB-231; assay: NCI antiproliferative SRB assay, Breast Cancer panel; format: cell-based
[8] = test system: Breast Cancer cell line panel; assay: NCI antiproliferative assay, panel summary; format: cell-based, Human
[9] = test system: IGROV1; assay: NCI antiproliferative SRB assay, Ovarian Cancer panel; format: cell-based, Human
[10] = test system: NCI-H23; assay: NCI antiproliferative SRB assay, Non-Small Cell Lung Cancer panel; format: cell-based, Human
[11] = test system: HS 578T; assay: NCI antiproliferative SRB assay, Breast Cancer panel; format: cell-based, Human
[12] = test system: OVCAR-3; assay: NCI antiproliferative SRB assay, Ovarian Cancer panel; format: cell-based, Human
[13] = test system: CAKI-1; assay: NCI antiproliferative SRB assay, Renal Cancer panel; format: cell-based, Human
[14] = test system: Melanoma cell line panel; assay: NCI antiproliferative assay, panel summary; format: cell-based, Human
[15] = test system: HT29; assay: NCI antiproliferative SRB assay, Colon Cancer panel; format: cell-based, Human
[16] = test system: SF-268; assay: NCI antiproliferative SRB assay, CNS Cancer panel; format: cell-based, Human
[17] = test system: UO-31; assay: NCI antiproliferative SRB assay, Renal Cancer panel; format: cell-based, Human
[18] = test system: HCC-2998; assay: NCI antiproliferative SRB assay, Colon Cancer panel; format: cell-based, Human
[19] = test system: OVCAR-5; assay: NCI antiproliferative SRB assay, Ovarian Cancer panel; format: cell-based, Human
[20] = test system: NCI/ADR-RES; assay: as above; format: cell-based, Human
[21] = test system: U251; assay: NCI antiproliferative SRB assay, CNS Cancer panel; format: cell-based; details: U251
[22] = test system: Leukemia cell line panel; assay: NCI antiproliferative assay, panel summary; format: cell-based, Human; details: for GI50: Homo sapiens
[23] = test system: CCRF-CEM; assay: NCI antiproliferative SRB assay, Leukemia panel; format: cell-based, Human
[24] = test system: UACC-62; assay: NCI antiproliferative SRB assay, Melanoma panel; format: cell-based, Human
[25] = test system: NCI-H522; assay: NCI antiproliferative SRB assay, Non-Small Cell Lung Cancer panel; format: cell-based, Human
[26] = test system: TK-10; assay: NCI antiproliferative SRB assay, Renal Cancer panel; format: cell-based, Human
[27] = test system: HL-60(TB); assay: cells; format: cell-based
[28] = test system: SK-OV-3; assay: NCI antiproliferative SRB assay, Ovarian Cancer panel; format: cell-based, Human
[29] = test system: OVCAR-4; assay: as above; format: cell-based, Human
[30] = test system: Prostate Cancer cell line panel; assay: NCI antiproliferative assay, panel summary; format: cell-based, Human
[31] = test system: NCI-H460; assay: NCI antiproliferative SRB assay, Non-Small Cell Lung Cancer panel; format: cell-based, Human
[32] = Homo sapiens, 5-dose assay, read-out: Sub Panel MID b (mean GI50 of panel)
[33] = Homo sapiens, 5-dose 0.01-100 µM
[34] = Homo sapiens, 5-dose 0.01-100 µM, read-out: LC50 (the source's name)

`COc1cc(/C=C/c2cc(/C=C/c3ccc(O)c(OC)c3)n(C(=O)Nc3ccc(C(F)(F)F)cc3)n2)ccc1O` [3c] was tested, and the “Mean % GI” value ([1]; 10 µM) was 73.05%, the “Selectivity Ratio (MID a:MID b)” value ([1]; 5-dose assay) was 1.31 and the GI50 [1, 32] was 2.17 µM. For the same molecule, the TGI ([2]; 5-dose 0.01-100 µM) was 10.7 µM, the GI50 [2, 33] was 1.97 µM and the CC50 [2, 34] was 72 µM. For the same molecule, the “%GI” value ([2]; one dose 10 µM) was 77.08%, the “GP (growth percent)” value ([2]; one dose 10 µM) was 22.92 and the TGI ([3]; 5-dose 0.01-100 µM) was 5.90 µM. For the same molecule, the GI50 [3, 33] was 2.19 µM, the CC50 [3, 34] was 23.9 µM and the “%GI” value ([3]; one dose 10 µM) was 42.01%. The “GP (growth percent)” value ([3]; one dose 10 µM) was 57.99, the TGI ([4]; 5-dose 0.01-100 µM) was 8.40 µM and the GI50 [4, 33] was 2.89 µM. The CC50 [4, 34] was 32.6 µM, the “%GI” value ([4]; one dose 10 µM) was 47.73% and the “GP (growth percent)” value ([4]; one dose 10 µM) was 52.27. The TGI ([5]; 5-dose 0.01-100 µM) was 20.0 µM, the GI50 [5, 33] was 2.73 µM and the CC50 [5, 34] was > 100 µM. The “%GI” value ([5]; one dose 10 µM) was 88.91%, the “GP (growth percent)” value ([5]; one dose 10 µM) was 11.09 and the TGI ([6]; 5-dose 0.01-100 µM) was 5.90 µM. The GI50 [6, 33] was 2.56 µM, the CC50 [6, 34] was 33.6 µM and the “%GI” value ([6]; one dose 10 µM) was 82.00%. For the same molecule, the “GP (growth percent)” value ([6]; one dose 10 µM) was 18.00, the TGI ([7]; 5-dose 0.01-100 µM) was 9.62 µM and the GI50 ([7]; Homo sapiens) was 3.06 µM. The CC50 [7, 34] was > 100 µM, the “%GI” value ([7]; one dose 10 µM) was 45.21% and the “GP (growth percent)” value ([7]; one dose 10 µM) was 54.79. For the same molecule, the “Mean % GI” value ([8]; 10 µM) was 60.04%, the “Selectivity Ratio (MID a:MID b)” value ([8]; 5-dose assay) was 0.99 and the GI50 [8, 32] was 2.86 µM. The TGI ([9]; 5-dose 0.01-100 µM) was 11.6 µM, the GI50 ([9]; Homo sapiens, IGROV-1, 5-dose 0.01-100 µM) was 2.77 µM and the CC50 ([9]; Homo sapiens, IGROV-1, 5-dose 0.01-100 µM, read-out: LC50 (the source's name)) was > 100 µM. For the same molecule, the “%GI” value ([9]; one dose 10 µM) was 57.18%, the “GP (growth percent)” value ([9]; one dose 10 µM) was 42.82 and the TGI ([10]; 5-dose 0.01-100 µM) was 6.48 µM. The GI50 [10, 33] was 2.13 µM, the CC50 [10, 34] was > 100 µM and the “%GI” value ([10]; one dose 10 µM) was 48.71%. For the same molecule, the “GP (growth percent)” value ([10]; one dose 10 µM) was 51.29, the TGI ([11]; 5-dose 0.01-100 µM) was 60.6 µM and the GI50 [11, 33] was 5.1 µM. For the same molecule, the CC50 [11, 34] was > 100 µM, the “%GI” value ([11]; one dose 10 µM) was 48.11% and the “GP (growth percent)” value ([11]; one dose 10 µM) was 51.89. The TGI ([12]; 5-dose 0.01-100 µM) was 26.7 µM, the GI50 [12, 33] was 3.41 µM and the CC50 [12, 34] was > 100 µM. The “%GI” value ([12]; one dose 10 µM) was 86.24%, the “GP (growth percent)” value ([12]; one dose 10 µM) was 13.76 and the TGI ([13]; 5-dose 0.01-100 µM) was 12.7 µM. The GI50 [13, 33] was 3.02 µM, the CC50 [13, 34] was 44.1 µM and the “%GI” value ([13]; one dose 10 µM) was 45.01%. For the same molecule, the “GP (growth percent)” value ([13]; one dose 10 µM) was 54.99, the “Mean % GI” value ([14]; 10 µM) was 60.81% and the GI50 [14, 32] was 2.51 µM. For the same molecule, the TGI ([15]; 5-dose 0.01-100 µM) was 4.13 µM, the GI50 ([15]; Homo sapiens, HT-29, 5-dose 0.01-100 µM) was 2.02 µM and the CC50 ([15]; Homo sapiens, HT-29, 5-dose 0.01-100 µM, read-out: LC50 (the source's name)) was 8.44 µM. For the same molecule, the “%GI” value ([15]; one dose 10 µM) was 96.50%, the “GP (growth percent)” value ([15]; one dose 10 µM) was 3.50 and the TGI ([16]; 5-dose 0.01-100 µM) was 15.4 µM. The GI50 [16, 33] was 2.8 µM, the CC50 [16, 34] was > 100 µM and the “%GI” value ([16]; one dose 10 µM) was 62.88%. The “GP (growth percent)” value ([16]; one dose 10 µM) was 37.12, the GI50 [17, 33] was 1.94 µM and the LC50 (50% lethal concentration) [17, 33] was > 100 µM. The “%GI” value ([17]; one dose 10 µM) was 57.15%, the “GP (growth percent)” value ([17]; one dose 10 µM) was 42.85 and the TGI ([18]; 5-dose 0.01-100 µM) was 3.82 µM. For the same molecule, the GI50 [18, 33] was 2.04 µM, the CC50 [18, 34] was 71.2 µM and the “%GI” value ([18]; one dose 10 µM) was −2.63%. The “GP (growth percent)” value ([18]; one dose 10 µM) was 102.63, the TGI ([19]; 5-dose 0.01-100 µM) was 4.97 µM and the GI50 [19, 33] was 2.16 µM. The CC50 [19, 34] was 15.2 µM, the “GP (growth percent)” value ([19]; one dose 10 µM) was 115.18 and the TGI ([20]; 5-dose 0.01-100 µM) was >100 µM. The GI50 [20, 33] was 3.51 µM, the CC50 [20, 34] was > 100 µM and the “%GI” value ([20]; one dose 10 µM) was 48.35%. The “GP (growth percent)” value ([20]; one dose 10 µM) was 51.65, the GI50 ([21]; Homo sapiens, U-251, 5-dose 0.01-100 µM, read-out: GI50) was 2.49 µM and the CC50 ([21]; Homo sapiens, U-251, 5-dose 0.01-100 µM, read-out: LC50 (the source's name)) was > 100 µM. For the same molecule, the TGI ([21]; 5-dose 0.01-100 µM) was 6.86 µM, the “%GI” value ([21]; one dose 10 µM) was 90.29% and the “GP (growth percent)” value ([21]; one dose 10 µM) was 9.71. The “Mean % GI” value ([22]; 10 µM) was 91.31%, the “Selectivity Ratio (MID a:MID b)” value ([22]; 5-dose assay) was 1.27 and the GI50 ([22]; 5-dose assay, read-out: GI50 values, range over the leukemia panel) was 1.48 to 2.73 µM. The GI50 ([22]; 5-dose assay, read-out: Sub Panel MID b (mean GI50 of panel)) was 2.24 µM, the GI50 [23, 33] was 2.63 µM and the CC50 [23, 34] was > 100 µM. The “%GI” value ([23]; one dose 10 µM) was 96.58%, the “GP (growth percent)” value ([23]; one dose 10 µM) was 3.42 and the TGI ([24]; 5-dose 0.01-100 µM) was 4.76 µM. The GI50 [24, 33] was 2.02 µM, the CC50 [24, 34] was 16.7 µM and the “%GI” value ([24]; one dose 10 µM) was 68.90%. For the same molecule, the “GP (growth percent)” value ([24]; one dose 10 µM) was 31.10, the TGI ([25]; 5-dose 0.01-100 µM) was 4.65 µM and the GI50 [25, 33] was 1.78 µM. For the same molecule, the CC50 [25, 34] was 40.8 µM, the “%GI” value ([25]; one dose 10 µM) was 92.68% and the “GP (growth percent)” value ([25]; one dose 10 µM) was 7.32. It also gave a TGI ([26]; 5-dose 0.01-100 µM) of 14.8 µM, a GI50 [26, 33] of 4.13 µM and a CC50 [26, 34] of 59.4 µM. For the same molecule, the “%GI” value ([26]; one dose 10 µM) was 22.31%, the “GP (growth percent)” value ([26]; one dose 10 µM) was 77.69 and the TGI ([27]; 5-dose 0.01-100 µM) was 6.45 µM. The GI50 [27, 33] was 1.98 µM, the CC50 [27, 34] was > 100 µM and the “%GI” value ([27]; one dose 10 µM) was 84.83%. The “GP (growth percent)” value ([27]; one dose 10 µM) was 15.17, the TGI ([28]; 5-dose 0.01-100 µM) was 66.7 µM and the GI50 [28, 33] was 4.02 µM. The CC50 [28, 34] was > 100 µM, the “%GI” value ([28]; one dose 10 µM) was 33.91% and the “GP (growth percent)” value ([28]; one dose 10 µM) was 66.09. The TGI ([29]; 5-dose 0.01-100 µM) was 52.7 µM, the GI50 [29, 33] was 3.51 µM and the CC50 [29, 34] was > 100 µM. For the same molecule, the “%GI” value ([29]; one dose 10 µM) was 23.29%, the “GP (growth percent)” value ([29]; one dose 10 µM) was 76.71 and the “Mean % GI” value ([30]; 10 µM) was 57.21%. The “Selectivity Ratio (MID a:MID b)” value ([30]; 5-dose assay) was 0.82, the GI50 [30, 32] was 3.44 µM and the TGI ([31]; 5-dose 0.01-100 µM) was 9.95 µM. For the same molecule, the GI50 [31, 33] was 3.22 µM, the CC50 [31, 34] was 50.7 µM and the “%GI” value ([31]; one dose 10 µM) was 81.71%. For the same molecule, the “GP (growth percent)” value ([31]; one dose 10 µM) was 18.29.
